Measured values taken from the NIST ThermoML archive (doi:10.1021/acs.jced.6b00536).
± gives the expanded uncertainty stated by the source.

Assay: xn = mol fraction of the nth substance listed
Conditions: Gas, Frequency=0.05 MHz, Single path-length method, x2 = 0.058

FC(F)(F)C(F)(F)C(F)(F)F [octafluoropropane] + N#N
speed of sound (252.62 K, 0.0858 kPa): 109 ± 0.13 m/s | speed of sound (252.62 K, 0.1039 kPa): 108.4 ± 0.12 m/s | speed of sound (252.62 K, 0.1203 kPa): 107.8 ± 0.11 m/s | speed of sound (252.62 K, 0.137 kPa): 107.18 ± 0.11 m/s | speed of sound (252.62 K, 0.1525 kPa): 106.62 ± 0.1 m/s | speed of sound (252.62 K, 0.1669 kPa): 106.06 ± 0.1 m/s | speed of sound (252.62 K, 0.1773 kPa): 105.75 ± 0.09 m/s | speed of sound (252.62 K, 0.1861 kPa): 105.38 ± 0.09 m/s | speed of sound (252.62 K, 0.1862 kPa): 105.38 ± 0.09 m/s | speed of sound (257.71 K, 0.08757 kPa): 110.16 ± 0.09 m/s | speed of sound (257.71 K, 0.1056 kPa): 109.59 ± 0.09 m/s | speed of sound (257.71 K, 0.1227 kPa): 109 ± 0.09 m/s | speed of sound (257.71 K, 0.1398 kPa): 108.4 ± 0.09 m/s | speed of sound (257.71 K, 0.1558 kPa): 107.86 ± 0.09 m/s | speed of sound (257.71 K, 0.1702 kPa): 107.33 ± 0.09 m/s | speed of sound (257.71 K, 0.181 kPa): 107.04 ± 0.1 m/s | speed of sound (257.71 K, 0.1898 kPa): 106.68 ± 0.09 m/s | speed of sound (257.71 K, 0.19 kPa): 106.68 ± 0.09 m/s | speed of sound (257.71 K, 0.2222 kPa): 105.46 ± 0.09 m/s | speed of sound (257.71 K, 0.2396 kPa): 104.86 ± 0.11 m/s | speed of sound (257.71 K, 0.2541 kPa): 104.28 ± 0.1 m/s | speed of sound (257.71 K, 0.2547 kPa): 104.37 ± 0.1 m/s | speed of sound (262.83 K, 0.08917 kPa): 111.32 ± 0.1 m/s | speed of sound (262.83 K, 0.1075 kPa): 110.77 ± 0.1 m/s | speed of sound (262.83 K, 0.125 kPa): 110.2 ± 0.1 m/s | speed of sound (262.83 K, 0.1429 kPa): 109.63 ± 0.1 m/s | speed of sound (262.83 K, 0.1589 kPa): 109.12 ± 0.1 m/s | speed of sound (262.83 K, 0.1737 kPa): 108.6 ± 0.1 m/s | speed of sound (262.83 K, 0.1844 kPa): 108.31 ± 0.1 m/s | speed of sound (262.83 K, 0.1937 kPa): 107.97 ± 0.1 m/s | speed of sound (262.83 K, 0.1942 kPa): 107.97 ± 0.1 m/s | speed of sound (262.83 K, 0.2273 kPa): 106.8 ± 0.1 m/s | speed of sound (262.83 K, 0.2449 kPa): 106.21 ± 0.1 m/s | speed of sound (262.83 K, 0.2605 kPa): 105.64 ± 0.1 m/s | speed of sound (262.83 K, 0.2771 kPa): 105.01 ± 0.11 m/s | speed of sound (262.83 K, 0.2894 kPa): 104.6 ± 0.1 m/s | speed of sound (267.94 K, 0.09058 kPa): 112.46 ± 0.1 m/s | speed of sound (267.94 K, 0.1095 kPa): 111.93 ± 0.1 m/s | speed of sound (267.94 K, 0.1273 kPa): 111.39 ± 0.1 m/s | speed of sound (267.94 K, 0.1462 kPa): 110.83 ± 0.1 m/s | speed of sound (267.94 K, 0.1619 kPa): 110.33 ± 0.1 m/s | speed of sound (267.94 K, 0.1773 kPa): 109.83 ± 0.1 m/s | speed of sound (267.94 K, 0.1883 kPa): 109.56 ± 0.1 m/s | speed of sound (267.94 K, 0.1978 kPa): 109.24 ± 0.1 m/s | speed of sound (267.94 K, 0.1983 kPa): 109.23 ± 0.1 m/s | speed of sound (267.94 K, 0.2324 kPa): 108.11 ± 0.1 m/s | speed of sound (267.94 K, 0.2503 kPa): 107.55 ± 0.1 m/s | speed of sound (267.94 K, 0.2663 kPa): 106.99 ± 0.1 m/s | speed of sound (267.94 K, 0.2836 kPa): 106.41 ± 0.1 m/s | speed of sound (267.94 K, 0.2966 kPa): 105.98 ± 0.09 m/s | speed of sound (273.07 K, 0.09281 kPa): 113.6 ± 0.1 m/s | speed of sound (273.07 K, 0.1111 kPa): 113.09 ± 0.1 m/s | speed of sound (273.07 K, 0.1299 kPa): 112.57 ± 0.1 m/s | speed of sound (273.07 K, 0.149 kPa): 112.03 ± 0.1 m/s | speed of sound (273.07 K, 0.1655 kPa): 111.55 ± 0.1 m/s | speed of sound (273.07 K, 0.1819 kPa): 111.06 ± 0.1 m/s | speed of sound (273.07 K, 0.1923 kPa): 110.81 ± 0.1 m/s | speed of sound (273.07 K, 0.2019 kPa): 110.5 ± 0.1 m/s | speed of sound (273.07 K, 0.2023 kPa): 110.49 ± 0.1 m/s | speed of sound (273.07 K, 0.2381 kPa): 109.41 ± 0.1 m/s | speed of sound (273.07 K, 0.2555 kPa): 108.88 ± 0.1 m/s | speed of sound (273.07 K, 0.2726 kPa): 108.31 ± 0.1 m/s | speed of sound (273.07 K, 0.2918 kPa): 107.72 ± 0.1 m/s | speed of sound (273.07 K, 0.3039 kPa): 107.38 ± 0.1 m/s | speed of sound (278.15 K, 0.0943 kPa): 114.71 ± 0.1 m/s | speed of sound (278.15 K, 0.1132 kPa): 114.22 ± 0.1 m/s | speed of sound (278.15 K, 0.1321 kPa): 113.71 ± 0.1 m/s | speed of sound (278.15 K, 0.1515 kPa): 113.2 ± 0.1 m/s | speed of sound (278.15 K, 0.1686 kPa): 112.73 ± 0.1 m/s | speed of sound (278.15 K, 0.1856 kPa): 112.27 ± 0.1 m/s | speed of sound (278.15 K, 0.1961 kPa): 112.03 ± 0.1 m/s | speed of sound (278.15 K, 0.2057 kPa): 111.72 ± 0.1 m/s | speed of sound (278.15 K, 0.2062 kPa): 111.72 ± 0.1 m/s | speed of sound (278.15 K, 0.2428 kPa): 110.66 ± 0.1 m/s | speed of sound (278.15 K, 0.2609 kPa): 110.16 ± 0.1 m/s | speed of sound (278.15 K, 0.2783 kPa): 109.63 ± 0.1 m/s | speed of sound (278.15 K, 0.2983 kPa): 109.03 ± 0.1 m/s | speed of sound (278.15 K, 0.3119 kPa): 108.65 ± 0.1 m/s | speed of sound (283.2 K, 0.09562 kPa): 115.81 ± 0.1 m/s | speed of sound (283.2 K, 0.1152 kPa): 115.33 ± 0.1 m/s | speed of sound (283.2 K, 0.1344 kPa): 114.84 ± 0.1 m/s | speed of sound (283.2 K, 0.1548 kPa): 114.34 ± 0.1 m/s | speed of sound (283.2 K, 0.1718 kPa): 113.88 ± 0.1 m/s | speed of sound (283.2 K, 0.1892 kPa): 113.45 ± 0.1 m/s | speed of sound (283.2 K, 0.1997 kPa): 113.19 ± 0.1 m/s | speed of sound (283.2 K, 0.2093 kPa): 112.93 ± 0.1 m/s | speed of sound (283.2 K, 0.2102 kPa): 112.92 ± 0.1 m/s | speed of sound (283.2 K, 0.2476 kPa): 111.9 ± 0.1 m/s | speed of sound (283.2 K, 0.2662 kPa): 111.41 ± 0.1 m/s | speed of sound (283.2 K, 0.2839 kPa): 110.89 ± 0.1 m/s | speed of sound (283.2 K, 0.3047 kPa): 110.33 ± 0.1 m/s | speed of sound (283.2 K, 0.3184 kPa): 109.97 ± 0.14 m/s | speed of sound (288.26 K, 0.09724 kPa): 116.9 ± 0.1 m/s | speed of sound (288.26 K, 0.117 kPa): 116.43 ± 0.1 m/s | speed of sound (288.26 K, 0.1367 kPa): 115.96 ± 0.1 m/s | speed of sound (288.26 K, 0.1569 kPa): 115.48 ± 0.1 m/s | speed of sound (288.26 K, 0.175 kPa): 115.05 ± 0.1 m/s | speed of sound (288.26 K, 0.193 kPa): 114.61 ± 0.1 m/s | speed of sound (288.26 K, 0.2034 kPa): 114.38 ± 0.1 m/s | speed of sound (288.26 K, 0.2133 kPa): 114.1 ± 0.1 m/s | speed of sound (288.26 K, 0.2142 kPa): 114.08 ± 0.1 m/s | speed of sound (288.26 K, 0.2525 kPa): 113.14 ± 0.1 m/s | speed of sound (288.26 K, 0.2716 kPa): 112.65 ± 0.1 m/s | speed of sound (288.26 K, 0.2896 kPa): 112.16 ± 0.1 m/s | speed of sound (288.26 K, 0.3111 kPa): 111.61 ± 0.1 m/s | speed of sound (288.26 K, 0.3249 kPa): 111.24 ± 0.09 m/s
